The values that follow are results of earlier work, collected in US8415299B2, “Methods for improved avian performance” (priority 2004, dated 2013).

Data set [1] has as its system laying hens. The settings on record: cited from earlier work.
In data set [2] the test system is T4 and rT3 deiodination systems. The settings on record: rat liver homogenates; cited from earlier work.

Regarding `C[C@]12C[C@H](O)[C@H]3[C@@H](CCC4=CC(=O)CC[C@@]43C)[C@@H]1CC[C@@H]2C(=O)CO` [corticosterone], the “Laying hens with cessation of egg production” value in data set [1] (20 to 40 mg/kg diet (Wolford et al. 1983)) is reported as 98%. Turning to `I` [iodide], the “Effect on egg production” value in data set [1] (5,000 mg/kg diet) is on record as “cessation of egg production”. For the compound `CCNC(=O)[C@@H]1CCCN1C(=O)[C@H](CCCNC(=N)N)NC(=O)[C@H](CC(C)C)NC(=O)[C@@H](CC(C)C)NC(=O)[C@H](Cc1ccc(O)cc1)NC(=O)[C@H](CO)NC(=O)[C@H](Cc1c[nH]c2ccccc12)NC(=O)[C@H](Cc1c[nH]cn1)NC(=O)[C@@H]1CCC(=O)N1` [leuprolide acetate], the Body weight result in data set [1] (single i.m. depot injection releasing 60 mcg/kg body weight per day for 30 days) was “no body weight loss”. Moreover, the Egg production in data set [1] (single i.m. depot injection releasing 60 mcg/kg body weight per day for 30 days, second week (Burke and Attia 1994)) was 3.5%.

Take `C=C1C[C@H]2[C@@H]3C=C(C)C4=CC(=O)CC[C@]4(C)[C@H]3CC[C@]2(C)[C@@]1(OC(C)=O)C(C)=O` [melengestrol acetate]: the “Effect on reproductive system” value in data set [1] (4 or 8 mg per laying hen per day through the feed (Koch et al. 2004)) is “reversible regression of the reproductive system”. For `[Zn+2]` [zinc], in data set [1] (2,800 mg/kg diet (Johnson and Brake 1992)), the “Action on progesterone production in F1 granulosa cells of the ovary” value is given as “inhibitory action”. Also, in data set [2], the “Inhibition of T4 and rT3 deiodination” value was “potent inhibitor”.
